US8134007B2, “Pyridine derivatives” (Pfizer Inc., priority 2007, dated 2012)

Assays:
Type in all cases: cell-based
Human Nav1.5 = molecular target: T1, Human Nav1.5 (Homo sapiens, UniProt Q14524); assay: Nav1.5 Assay (VIPR, HEK293 cells); conditions: HEK293 cells expressing Human Nav1.5; average of replicates; read-out: Nav1.5 IC50
T1 construct: expressed in transfected cells; host or cells: HEK293
Procedure: The Nav1.5 assay is performed in HEK293 cells expressing Human Nav1.5 in the same way as the Nav1.8 assay.
Where replicate experiments were conducted resulting in multiple sets of data for a test compound, the data presented represent the average value from all replicate experiments.

[1] = system: tetrodotoxin-sensitive voltage-gated sodium channels including NaV1.2, NaV1.3 and NaV1.7; assay: TTX-S Assay (VIPR, SHSY-5Y cell line, veratridine opener); conditions: read-out: TTX-S IC50, veratridine 50 μM opener, average of replicates
Human Nav1.8 = molecular target: T2, Human Nav1.8 (Homo sapiens, UniProt Q9Y5Y9); assay: VIPR Assay for Nav1.8 Compounds (FRET membrane potential, deltamethrin opener); conditions: VIPR FRET membrane potential assay, deltamethrin opener; average of replicates; read-out: Nav1.8 IC50
T2 construct: expressed in transfected cells; host or cells: HEK293
T2 sequence (Q9Y5Y9 whole entry): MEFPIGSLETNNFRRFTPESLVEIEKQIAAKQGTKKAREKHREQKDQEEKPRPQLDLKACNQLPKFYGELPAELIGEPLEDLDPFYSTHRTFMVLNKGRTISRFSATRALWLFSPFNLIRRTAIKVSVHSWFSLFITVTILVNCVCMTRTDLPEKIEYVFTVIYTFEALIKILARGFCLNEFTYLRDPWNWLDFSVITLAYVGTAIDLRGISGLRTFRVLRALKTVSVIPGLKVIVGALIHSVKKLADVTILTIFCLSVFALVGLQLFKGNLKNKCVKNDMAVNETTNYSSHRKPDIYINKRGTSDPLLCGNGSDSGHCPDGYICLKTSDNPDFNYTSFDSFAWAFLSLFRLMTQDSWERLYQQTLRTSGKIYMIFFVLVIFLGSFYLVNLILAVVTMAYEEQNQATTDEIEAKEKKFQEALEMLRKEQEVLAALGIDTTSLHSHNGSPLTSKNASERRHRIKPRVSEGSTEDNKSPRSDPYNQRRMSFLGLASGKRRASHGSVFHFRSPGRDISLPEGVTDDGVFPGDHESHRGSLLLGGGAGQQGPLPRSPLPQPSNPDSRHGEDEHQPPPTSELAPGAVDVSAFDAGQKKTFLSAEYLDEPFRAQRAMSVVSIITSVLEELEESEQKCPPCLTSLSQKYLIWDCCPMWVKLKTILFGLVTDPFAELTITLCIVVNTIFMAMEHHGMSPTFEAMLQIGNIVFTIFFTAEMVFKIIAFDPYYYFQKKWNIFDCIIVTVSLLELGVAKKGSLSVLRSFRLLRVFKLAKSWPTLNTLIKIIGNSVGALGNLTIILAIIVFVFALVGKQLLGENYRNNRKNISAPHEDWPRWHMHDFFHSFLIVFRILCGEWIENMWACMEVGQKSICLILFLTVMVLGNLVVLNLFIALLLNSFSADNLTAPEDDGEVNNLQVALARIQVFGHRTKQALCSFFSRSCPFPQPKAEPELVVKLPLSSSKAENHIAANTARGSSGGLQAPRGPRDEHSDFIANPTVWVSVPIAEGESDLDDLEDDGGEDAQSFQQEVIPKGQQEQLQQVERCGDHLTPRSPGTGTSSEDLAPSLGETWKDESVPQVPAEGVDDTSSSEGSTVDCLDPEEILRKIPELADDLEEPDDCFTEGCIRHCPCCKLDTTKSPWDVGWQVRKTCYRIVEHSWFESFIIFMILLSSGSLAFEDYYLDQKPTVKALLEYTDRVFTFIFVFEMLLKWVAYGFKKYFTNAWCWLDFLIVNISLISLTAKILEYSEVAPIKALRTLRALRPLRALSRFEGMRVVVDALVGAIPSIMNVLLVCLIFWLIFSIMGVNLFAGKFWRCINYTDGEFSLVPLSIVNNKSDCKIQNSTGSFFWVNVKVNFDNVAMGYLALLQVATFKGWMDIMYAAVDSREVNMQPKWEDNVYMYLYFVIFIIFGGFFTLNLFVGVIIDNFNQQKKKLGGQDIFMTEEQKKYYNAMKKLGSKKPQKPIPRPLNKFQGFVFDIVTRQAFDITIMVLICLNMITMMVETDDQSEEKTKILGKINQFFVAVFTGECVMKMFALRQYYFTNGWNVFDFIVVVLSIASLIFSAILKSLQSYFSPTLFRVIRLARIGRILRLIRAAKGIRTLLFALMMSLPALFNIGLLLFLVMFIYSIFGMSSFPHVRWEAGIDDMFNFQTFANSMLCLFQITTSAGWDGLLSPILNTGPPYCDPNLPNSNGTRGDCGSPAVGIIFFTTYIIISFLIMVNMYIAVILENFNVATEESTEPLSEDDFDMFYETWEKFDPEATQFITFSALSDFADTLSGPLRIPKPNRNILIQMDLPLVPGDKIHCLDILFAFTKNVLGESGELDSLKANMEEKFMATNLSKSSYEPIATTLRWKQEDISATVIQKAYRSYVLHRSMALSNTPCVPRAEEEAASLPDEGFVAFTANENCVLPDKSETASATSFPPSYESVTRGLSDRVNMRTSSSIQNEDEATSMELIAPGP

T1 sequence (Q14524 whole entry): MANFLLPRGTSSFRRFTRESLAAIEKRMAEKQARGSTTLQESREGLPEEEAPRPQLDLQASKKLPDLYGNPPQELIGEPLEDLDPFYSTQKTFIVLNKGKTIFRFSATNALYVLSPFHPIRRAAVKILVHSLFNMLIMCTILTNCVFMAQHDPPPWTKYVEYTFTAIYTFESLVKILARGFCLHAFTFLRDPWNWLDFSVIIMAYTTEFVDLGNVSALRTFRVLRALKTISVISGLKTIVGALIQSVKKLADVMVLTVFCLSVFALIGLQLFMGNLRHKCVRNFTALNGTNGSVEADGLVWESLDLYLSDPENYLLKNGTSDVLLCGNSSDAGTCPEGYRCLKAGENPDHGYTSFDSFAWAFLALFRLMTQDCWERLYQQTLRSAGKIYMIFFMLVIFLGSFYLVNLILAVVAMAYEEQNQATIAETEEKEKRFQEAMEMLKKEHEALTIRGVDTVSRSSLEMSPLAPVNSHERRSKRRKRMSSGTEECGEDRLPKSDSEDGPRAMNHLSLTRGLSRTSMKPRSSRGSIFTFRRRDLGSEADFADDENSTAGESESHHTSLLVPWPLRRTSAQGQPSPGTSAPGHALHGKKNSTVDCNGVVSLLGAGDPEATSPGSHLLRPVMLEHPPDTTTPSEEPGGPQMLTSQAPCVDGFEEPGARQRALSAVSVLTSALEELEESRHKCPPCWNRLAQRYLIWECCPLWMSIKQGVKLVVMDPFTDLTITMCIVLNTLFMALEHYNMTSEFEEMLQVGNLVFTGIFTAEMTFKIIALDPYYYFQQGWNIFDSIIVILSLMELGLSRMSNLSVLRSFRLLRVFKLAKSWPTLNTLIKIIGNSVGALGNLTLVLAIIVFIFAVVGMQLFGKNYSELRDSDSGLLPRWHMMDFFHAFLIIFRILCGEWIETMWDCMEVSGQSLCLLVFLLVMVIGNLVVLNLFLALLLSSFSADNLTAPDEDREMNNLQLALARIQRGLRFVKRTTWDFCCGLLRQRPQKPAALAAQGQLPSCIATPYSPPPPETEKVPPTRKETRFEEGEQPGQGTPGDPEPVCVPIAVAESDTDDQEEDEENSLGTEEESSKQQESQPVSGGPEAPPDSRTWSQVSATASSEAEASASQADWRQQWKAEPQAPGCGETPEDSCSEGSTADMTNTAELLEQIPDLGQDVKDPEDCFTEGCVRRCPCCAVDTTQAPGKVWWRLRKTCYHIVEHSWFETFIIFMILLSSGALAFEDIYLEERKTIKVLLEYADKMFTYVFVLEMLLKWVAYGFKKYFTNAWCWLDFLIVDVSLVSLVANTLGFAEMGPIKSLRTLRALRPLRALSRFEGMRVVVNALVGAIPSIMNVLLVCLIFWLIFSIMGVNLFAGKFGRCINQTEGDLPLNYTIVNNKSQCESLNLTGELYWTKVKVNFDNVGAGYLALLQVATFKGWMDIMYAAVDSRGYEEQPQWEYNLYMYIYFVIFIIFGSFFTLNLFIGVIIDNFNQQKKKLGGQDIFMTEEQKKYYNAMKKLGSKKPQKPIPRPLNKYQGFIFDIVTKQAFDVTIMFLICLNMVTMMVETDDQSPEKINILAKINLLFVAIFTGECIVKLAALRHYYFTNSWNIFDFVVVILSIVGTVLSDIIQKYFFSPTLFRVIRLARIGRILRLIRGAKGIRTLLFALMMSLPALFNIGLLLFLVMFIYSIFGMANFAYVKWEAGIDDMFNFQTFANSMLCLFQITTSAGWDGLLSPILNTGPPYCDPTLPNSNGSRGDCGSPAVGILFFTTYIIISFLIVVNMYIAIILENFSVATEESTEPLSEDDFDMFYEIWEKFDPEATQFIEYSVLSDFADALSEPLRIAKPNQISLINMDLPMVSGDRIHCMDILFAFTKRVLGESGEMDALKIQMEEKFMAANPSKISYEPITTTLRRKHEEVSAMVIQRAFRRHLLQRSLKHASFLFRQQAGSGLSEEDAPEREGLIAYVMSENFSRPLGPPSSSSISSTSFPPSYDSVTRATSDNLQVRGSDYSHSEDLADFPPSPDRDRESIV

Structure (SMILES) | IC50 (Human Nav1.5) | IC50 [1] | IC50 (Human Nav1.8)
COc1cc(Cl)c(Cl)c(-c2ccc(NC(=O)c3nonc3C)nc2N)c1 [Example 48, N-[6-Amino-5-(2,3-dichloro-5-methoxyphenyl)pyridin-2-yl]-4-methyl-1,2,5-oxadiazole-3-carboxamide] | 22 µM | 3.3 µM | 0.76 µM
Cc1nonc1C(=O)Nc1ccc(-c2ccccc2OC(F)(F)F)c(N)n1 [Example 50, N-{6-Amino-5-[2-(trifluoromethoxy)phenyl]pyridin-2-yl}-4-methyl-1,2,5-oxadiazole-3-carboxamide] | 19 µM | 9.8 µM | 3.1 µM
CCn1nccc1C(=O)Nc1ccc(-c2cc(OC)ccc2Cl)c(N)n1 [Example 52, N-[6-Amino-5-(2-chloro-5-methoxyphenyl)pyridin-2-yl]-1-ethyl-1H-pyrazole-5-carboxamide] | 16 µM | 6.4 µM | 0.95 µM
CCn1nccc1C(=O)Nc1ccc(-c2ccccc2Cl)c(N)n1 [Example 53, N-[6-Amino-5-(2-chlorophenyl)pyridin-2-yl]-1-ethyl-1H-pyrazole-5-carboxamide] | 22 µM | 15 µM | 2.3 µM
CCn1nccc1C(=O)Nc1ccc(-c2cc(F)ccc2Cl)c(N)n1 [Example 54, N-[6-Amino-5-(2-chloro-5-fluorophenyl)pyridin-2-yl]-1-ethyl-1H-pyrazole-5-carboxamide] | 20 µM | 18 µM | 1.2 µM
CCn1nccc1C(=O)Nc1ccc(-c2ccc(F)cc2Cl)c(N)n1 [Example 55, N-[6-Amino-5-(2-chloro-4-fluorophenyl)pyridin-2-yl]-1-ethyl-1H-pyrazole-5-carboxamide] | > 32 µM | > 32 µM | 23 µM
CCn1nccc1C(=O)Nc1ccc(-c2cc(Cl)ccc2Cl)c(N)n1 [Example 56, N-[6-Amino-5-(2,5-dichlorophenyl)pyridin-2-yl]-1-ethyl-1H-pyrazole-5-carboxamide] | 17 µM | 8.1 µM | 2.4 µM
CCn1nccc1C(=O)Nc1ccc(-c2cc(F)ccc2C(F)(F)F)c(N)n1 [Example 57, N-{6-Amino-5-[5-fluoro-2-(trifluoromethyl)phenyl]pyridin-2-yl}-1-ethyl-1H-pyrazole-5-carboxamide] | > 32 µM | 21 µM | 3.7 µM
CCn1nccc1C(=O)Nc1ccc(-c2cccc(F)c2Cl)c(N)n1 [Example 58, N-[6-Amino-5-(2-chloro-3-fluorophenyl)pyridin-2-yl]-1-ethyl-1H-pyrazole-5-carboxamide] | 31 µM | 17 µM | 9.3 µM
CCn1nccc1C(=O)Nc1ccc(-c2ccccc2OC(F)(F)F)c(N)n1 [Example 59, N-{6-Amino-5-[2-(trifluoromethoxy)phenyl]pyridin-2-yl}-1-ethyl-1H-pyrazole-5-carboxamide] | 31 µM | 17 µM | 3.6 µM
CCn1nccc1C(=O)Nc1ccc(-c2ccccc2C(F)(F)F)c(N)n1 [Example 60, N-{6-Amino-5-[2-(trifluoromethyl)phenyl]pyridin-2-yl}-1-ethyl-1H-pyrazole-5-carboxamide] | 20 µM | > 32 µM | 4.3 µM
CCn1nccc1C(=O)Nc1ccc(-c2cc(OC)cc(Cl)c2Cl)c(N)n1 [Example 61, N-[6-Amino-5-(2,3-dichloro-5-methoxyphenyl)pyridin-2-yl]-1-ethyl-1H-pyrazole-5-carboxamide] | 9.7 µM | 9.7 µM | 1.3 µM
CCn1nccc1C(=O)Nc1ccc(-c2cc(Cl)cc(OC)c2Cl)c(N)n1 [Example 62, N-[6-Amino-5-(2,5-dichloro-3-methoxyphenyl)pyridin-2-yl]-1-ethyl-1H-pyrazole-5-carboxamide] | 17 µM | 11 µM | 5.1 µM
CCn1nccc1C(=O)Nc1ccc(-c2cc(Cl)ccc2OC(F)(F)F)c(N)n1 [Example 63, N-{6-Amino-5-[5-chloro-2-(trifluoromethoxy)phenyl]pyridin-2-yl}-1-ethyl-1H-pyrazole-5-carboxamide] | 16 µM | 4.4 µM | 4.3 µM
CCn1nccc1C(=O)Nc1ccc(-c2cc(OC(F)(F)F)ccc2F)c(N)n1 [Example 64, N-{6-Amino-5-[2-fluoro-5-(trifluoromethoxy)phenyl]pyridin-2-yl}-1-ethyl-1H-pyrazole-5-carboxamide] | 14 µM | 3.7 µM | 5 µM
CCn1nccc1C(=O)Nc1ccc(-c2cc(OC(F)(F)F)ccc2Cl)c(N)n1 [Example 65, N-{6-Amino-5-[2-chloro-5-(trifluoromethoxy)phenyl]pyridin-2-yl}-1-ethyl-1H-pyrazole-5-carboxamide] | 12 µM | 3.2 µM | 5.3 µM

Structure (SMILES) | IC50 (Human Nav1.5) | IC50 [1] | IC50 (Human Nav1.8)
CC(C)n1nccc1C(=O)Nc1ccc(-c2cc(F)ccc2Cl)c(N)n1 [Example 67, N-[6-Amino-5-(2-chloro-5-fluorophenyl)pyridin-2-yl]-1-isopropyl-1H-pyrazole-5-carboxamide] | 31 µM | 22 µM | 5 µM
CC(C)n1nccc1C(=O)Nc1ccc(-c2ccccc2OC(F)(F)F)c(N)n1 [Example 68, N-{6-Amino-5-[2-(trifluoromethoxy)phenyl]pyridin-2-yl}-1-isopropyl-1H-pyrazole-5-carboxamide] | 17 µM | 5 µM | 3.9 µM
CC(C)n1nccc1C(=O)Nc1ccc(-c2cc(OC(F)(F)F)ccc2Cl)c(N)n1 [Example 69, N-{6-Amino-5-[2-chloro-5-(trifluoromethoxy)phenyl]pyridin-2-yl}-1-isopropyl-1H-pyrazole-5-carboxamide] | 16 µM | 3.6 µM | 16 µM
Cn1ccc(C(=O)Nc2ccc(-c3cc(Cl)cc(Cl)c3Cl)c(N)n2)n1 [Example 70, N-[6-Amino-5-(2,3,5-trichlorophenyl)pyridin-2-yl]-1-methyl-1H-pyrazole-3-carboxamide] | 28 µM | 14 µM | 11 µM
Nc1nc(NC(=O)c2cnon2)ccc1-c1cc(Cl)ccc1Cl [Example 71, N-[6-Amino-5-(2,5-dichlorophenyl)pyridin-2-yl]-1,2,5-oxadiazole-3-carboxamide] | > 32 µM | > 32 µM | > 32 µM
COc1ccc(Cl)c(-c2ccc(NC(=O)c3ccon3)nc2N)c1 [Example 73, N-[6-Amino-5-(2-chloro-5-methoxyphenyl)pyridin-2-yl]isoxazole-3-carboxamide] | > 32 µM | 18 µM | 4.7 µM
Nc1nc(NC(=O)c2ccno2)ccc1-c1cc(Cl)cc(Cl)c1Cl [Example 78, N-[6-Amino-5-(2,3,5-trichlorophenyl)pyridin-2-yl]isoxazole-5-carboxamide] | 14 µM | 8.3 µM | 1.4 µM
Cn1nncc1C(=O)Nc1ccc(-c2cc(Cl)ccc2Cl)c(N)n1 [Example 80, N-[6-Amino-5-(2,5-dichlorophenyl)pyridin-2-yl]-1-methyl-1H-1,2,3-triazole-5-carboxamide] | 15 µM | 15 µM | 3.4 µM
COc1cc(Cl)c(Cl)c(-c2ccc(NC(=O)c3cnnn3C)nc2N)c1 [Example 81, N-[6-Amino-5-(2,3-dichloro-5-methoxyphenyl)pyridin-2-yl]-1-methyl-1H-1,2,3-triazole-5-carboxamide] | 2.9 µM | 7.5 µM | 1.1 µM
Cn1nncc1C(=O)Nc1ccc(-c2ccccc2Cl)c(N)n1 [Example 82, N-[6-Amino-5-(2-chlorophenyl)pyridin-2-yl]-1-methyl-1H-1,2,3-triazole-5-carboxamide] | > 32 µM | > 32 µM | 9.3 µM
COc1ccc(Cl)c(-c2ccc(NC(=O)c3cnnn3C)nc2N)c1 [Example 83, N-[6-Amino-5-(2-chloro-5-methoxyphenyl)pyridin-2-yl]-1-methyl-1H-1,2,3-triazole-5-carboxamide] | 4.1 µM | 12 µM | 3.3 µM
Cn1nncc1C(=O)Nc1ccc(-c2cc(Cl)cc(Cl)c2Cl)c(N)n1 [Example 84, N-[6-Amino-5-(2,3,5-trichlorophenyl)pyridin-2-yl]-1-methyl-1H-1,2,3-triazole-5-carboxamide] | 5.3 µM | 6.5 µM | 2.4 µM
Cn1nncc1C(=O)Nc1ccc(-c2ccccc2OC(F)(F)F)c(N)n1 [Example 85, N-{6-Amino-5-[2-(trifluoromethoxy)phenyl]pyridin-2-yl}-1-methyl-1H-1,2,3-triazole-5-carboxamide] | 31 µM | 28 µM | 7 µM
Cn1nncc1C(=O)Nc1ccc(-c2cc(F)ccc2Cl)c(N)n1 [Example 86, N-[6-Amino-5-(2-chloro-5-fluorophenyl)pyridin-2-yl]-1-methyl-1H-1,2,3-triazole-5-carboxamide] | 7.5 µM | 19 µM | 5.3 µM
COc1cc(Cl)cc(-c2ccc(NC(=O)c3cnnn3C)nc2N)c1Cl [Example 87, N-[6-Amino-5-(2,5-dichloro-3-methoxyphenyl)pyridin-2-yl]-1-methyl-1H-1,2,3-triazole-5-carboxamide] | 9.9 µM | 15 µM | 6.1 µM
COCc1nocc1C(=O)Nc1ccc(-c2ccccc2OC(F)(F)F)c(N)n1 [Example 88, N-{6-Amino-5-[2-(trifluoromethoxy)phenyl]pyridin-2-yl}-3-(methoxymethyl)isoxazole-4-carboxamide] | 9.8 µM | 7.3 µM | 1.5 µM
